Test results as given in patent publication US20240294523A1, “HETEROCYCLIC LACTAM COMPOUND, AND PREPARATION METHOD THEREFOR AND PHARMACEUTICAL USE THEREOF” (Genfleet Therapeutics (Shanghai) Inc., priority 2021, published 2024).

What was measured:
U937 cells = test: Inhibition of TNF-α-induced programmed necrosis of U937 cells (CellTiter-Glo); type: cell-based; settings: U-937, human TNF-α + Q-VD-Oph, 48 hours
Method: The U937 cell line used in the following test examples was from ATCC, number: CRL-1593.2, batch number: 63479999, culture medium: RPMI-1640+10% FBS.
(§1) The reagents used, suppliers and product numbers of the reagents were as follows: RPMI-1640, Gibco, 11875-093; FBS, Gibco, 10099-141; Trypsin-EDTA, Gibco, 25200-072; PS, Gibco, 15140-122; CellTiter Glo , Progema, G7573; DMSO, VWR AMRESCO, 0231-500ML; TNF-α protein (human, recombinant), Peprotech, 300-01A; Q-VD-Oph, MCE, HY-12305; V-shaped bottom plate, Corning, 3894; 384-well low-flange white flat-bottom microplate, Corning, 3570; RIPK1, Eurofins, 16-022; MOPS, BDH, 441644J; EDTA, Sigma, E5134; Myelin basic protein, Sigma, M1891-25.00 MG; Magnesium acetate, Merck, DU008026; ATP (non-radioactive label), Sigma, A-7699; ATP (radioactive label), Hartmann Analytic, DU008054; Phosphoric acid, Metlab, DU003000; Z-VAD: Shanghai Yuang Chemical Industry, YA02401.
The compounds to be tested were dissolved in DMSO and diluted with DMSO into a series of concentration gradients. 5000 U937 cells/well were seeded in a 384-well white plate. Compounds of corresponding concentrations were added to each well and mixed evenly with the cells. At the same time, human TNF-a and Q-VD-Oph were added to induce programmed necrosis of the cells. The cells were placed at 37° C., 5% CO2 incubator for 48 hours. CellTiter-Glo reagent was used for detection, and the chemiluminescence reading was detected using a microplate reader after sufficient lysis reaction. The test results were calculated using the formula SR (%)=(RLU compound−RLU blank)/(RLU high control−RLU blank)×100%. The survival rate and the final concentration of the corresponding compound were drawn into a curve and fitted using four parameters. Inhibitory IC50 on TNF-α-induced cell necrosis of the compounds were calculated.

RIPK1 = RIPK1 (Homo sapiens (Human), UniProt Q13546); test: Inhibitory activity against RIPK1 enzyme (33P-ATP, MBP substrate); type: biochemical; settings: 36 nM RIPK1, 0.33 mg/ml MBP, 155 μM ATP, 2 hours, room temperature
Method: as §1
The compound to be tested was dissolved in DMSO to prepare a 10 mM stock solution, diluted 3.16 times with DMSO into a series of concentration gradients, and then MOPS pH 7.0 buffer solution was used to dilute 50 times to prepare a working solution, and mixed well with 36 nM RIPK1 (final concentration), 0.33 mg/ml substrate MBP. Afterwards, 10 mM magnesium ions and 155 μM phosphorus 33 isotope-labeled ATP were added to react, The final concentration of DMSO was 2%. After the reaction was proceeded at room temperature for 2 hours, phosphoric acid was added to terminate. The final reaction system was processed and detected using a liquid scintillation counter. After the test results are subtracted from the blank control and compared with the reading value of the control group to convert to the activity percentage, which was plotted as a curve with the final concentration of the corresponding compound, and four-parameter fitting was used to obtain the IC50 of the compound that inhibits RIPK1 enzyme activity.

L929 cells = test: Inhibition of TNF-α-induced programmed necrosis of L929 cells (CellTiter-Glo); type: cell-based; settings: 30 ng/ml mouse TNF-α + 15 μM Z-VAD, 6 hours
Method: The L929 cell line used in the following test examples was from ATCC, number: CCL-1, batch number: 70001022, culture medium: MEM+10% FBS+1% PS.
as §1
The compounds to be tested were dissolved in DMSO to prepare a 10 mM stock solution, and diluted 3.16 times with DMSO into a series of concentration gradients, and then dilute 100 times to prepare a working solution. 10000 L929 cells/well were seeded in a 384-well white plate. Compounds of corresponding concentrations were added to each well and mixed evenly with the cells. At the same time, 30 ng/ml mouse TNF-α and 15 μM Z-VAD were added to induce programmed necrosis of the cells, the final concentration of DMSO was 0.2%. The cells were placed at 37° C., 5% CO2 incubator for 6 hours. CellTiter-Glo reagent was used for detection, and the chemiluminescence reading was detected using a microplate reader after sufficient lysis reaction. The test results were calculated using the formula SR (%)=(RLU compound−RLU blank)/(RLU high control−RLU blank)×100%. The survival rate and the final concentration of the corresponding compound were drawn into a curve and fitted using four parameters. Inhibitory IC50 on TNF-α-induced cell necrosis of the compounds were calculated.

RIPK1, sequence (Q13546 whole entry): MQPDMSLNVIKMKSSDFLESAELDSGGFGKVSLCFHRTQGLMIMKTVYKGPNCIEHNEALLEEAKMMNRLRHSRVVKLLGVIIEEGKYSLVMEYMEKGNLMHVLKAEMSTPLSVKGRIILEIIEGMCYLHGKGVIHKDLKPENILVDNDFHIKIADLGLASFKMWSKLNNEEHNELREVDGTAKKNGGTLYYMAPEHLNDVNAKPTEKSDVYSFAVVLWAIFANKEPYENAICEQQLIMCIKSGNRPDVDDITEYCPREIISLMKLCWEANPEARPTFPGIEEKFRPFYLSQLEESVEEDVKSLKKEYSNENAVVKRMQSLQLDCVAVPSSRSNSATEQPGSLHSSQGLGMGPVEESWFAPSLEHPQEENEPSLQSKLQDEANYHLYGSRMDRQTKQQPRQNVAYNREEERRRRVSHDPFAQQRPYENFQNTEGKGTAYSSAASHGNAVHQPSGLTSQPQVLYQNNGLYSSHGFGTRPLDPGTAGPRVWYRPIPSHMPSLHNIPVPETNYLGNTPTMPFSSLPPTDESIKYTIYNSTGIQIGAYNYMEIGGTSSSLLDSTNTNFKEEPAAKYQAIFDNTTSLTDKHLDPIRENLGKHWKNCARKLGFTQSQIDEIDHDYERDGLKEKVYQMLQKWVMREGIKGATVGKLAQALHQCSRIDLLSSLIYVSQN

IC50 (RIPK1) [nM]	SMILES	IC50 (U937 cells) [nM]	IC50 (L929 cells) [nM]
89	C[C@H](C(F)F)N1CCc2c(nn(Cc3c(F)cccc3F)c2Cl)C1=O (single isomer, unassigned) [Compound Z9-2]	42.8	450
–	C[C@@H](C(F)F)N1CCc2c(nn(Cc3c(F)cccc3F)c2Br)C1=O (single isomer, unassigned) [Compound Z24-2]	29.7	348
–	CC(C(F)F)N1CCc2c(nn(Cc3c(F)cccc3F)c2Cl)C1=O (stereo not shown) [Compound Z9, 3-chloro-2-(2,6-difluorobenzyl)-6-(1,1-difluoropropan-2-yl)-2,4,5,6-tetrahydro-7H-pyrazolo[3,4-c]pyridin-7-one]	57.1	600
